We go through 1 molecule from patent publication EP0233206B1, “SUGAR-[…] THEIR PHARMACEUTICAL USE” (priority 1985, dated 1987).

Structures are written as SMILES.

In one assay the test system is immunkompetenten Zellen. Nature of the assay: Activity of immunocompetent cells of the treated animals. The following applies: cells of the animals treated with 500 µg substance in 1 % Squalan-in-Wasser-Lösung. Format: in vivo, NMRI-Mäusen.
Assay [1] has as its system mäusepathogenen Influenza-Viren. Format: in vivo, NMRI-Mäusen. As to conditions: 20 NMRI mice, 500 µg each injected in 1 % Squalan-in-Wasser-Lösung, all saline controls died.

`COC(=O)CC[C@@H](NC(=O)CNC(=O)CO[C@@H]1[C@H]2OC(C)(C)O[C@H]2O[C@@H]1[C@H]1COC(C)(C)O1)C(=O)OC` [Beispiel 1, N-[ (1,2:5,6-Di-0-isopropyliden-α-D-glucofuranos-30-yl)-acetyl]-glycyl-D-glutaminsäure-dimethylester]: in the assay on immunkompetenten Zellen, the “Aktivität der immunkompetenten Zellen” value is listed as “erhöhte Aktivität”. The “überlebten (Tiere)” value in assay [1] was 80%.
